Laboratory results reported in patent publication US8282688B2, “Laccase mediators and methods of use” (Danisco US Inc., priority 2006, dated 2012).
Values joined by “and” are separate entries in the source; they are usually repeats but may differ in a detail not shown here. Equal entries are not always repeated.

Key:
Type in all cases: biochemical
[1] = test system: C. unicolor laccase; test: Bleaching of denim swatches with C. unicolor laccase (Example 4); parameters: key to ΔL Denim swatch Frontside / Δb Denim swatch Frontside / ΔL Denim swatch Backside / Δb Denim swatch Backside / Δa Denim swatch Backside / Δa Denim swatch Frontside: difference between initial and final CIE L*a*b* values; key to ΔE (total color difference) Denim swatch Backside / ΔE (total color difference) Denim swatch Frontside: ΔE = (ΔL²+Δa²+Δb²)^1/2 from CIE L*a*b* before/after bleaching
Protocol: Denim legs (made out of sulfur bottom/indigo dyed denim fabric from Cone Mill, style number 1662P) were pretreated with IndiAge® 2XL at a dose of 1 gram per liter in a 50 lb lab scale tumbling washer. The liquor ratio was 6 to 1 (5 kg substrate in 30 liters of water) and the treatment was performed at 55° C. at pH 4.5 for 1 hour. A warm rinse followed the cellulase treatment, after which the fabric was dried in a tumble dryer. A punch press was used to cut ⅝ inch denim disks from IndiAge® 2XL pretreated denim legs. Each denim disk is pre read with a Chroma Meter CR-200 by Minolta in order to determine the CIE L*a*b* values of both the front and backside of the fabric disk.
One denim disk is placed in each well of two duplicate 12 well micro-titer plates. Each well received C. unicolor laccase (20 uL of 1/20 dilution, approx. 20 ppm), mediator (200, 100, 50 or 20 uL of a 20 mM stock solution in methanol) and 50 mM potassium phosphate buffer, pH 6 for a total volume of 2 mL/well. The mediators were methyl syringate (MS), 4-cyano-2,6-dimethoxyphenol (SN) and 3,4,5-trimethoxyphenol (TMP). The plates were sealed and incubated at 50° C. for 2 hours at 150 rpm in a standard incubator. Following this period, the swatches were removed from the plates and carefully placed on a filter paper in a Buchner funnel and washed with copious amounts of water, followed by drying of the residual water under high vacuum overnight. The swatches were then re-read with the chromometer in order to determine the CIE L*a*b* values of both the front and backside of the disk following bleaching. The total color difference (ΔE) is calculated from the difference between the initial and final CIE L*a*b* values according to the formula ΔE=(ΔL^2+Δa^2+Δb^2)^1/2 The total color differences (ΔE) as a function of mediator concentration are plotted in FIGS. 5 and 6.

[2] = test system: Thielavia sp. laccase (Ecostone LCC10); test: Bleaching of solubilized indigo, Thielavia sp. laccase with mediators (Example 2); conditions: for ΔA600 (change in absorbance at 600 nm relative to control): laccase 10 ppm, pH 5, 50° C., 2 hours, n = 2
Protocol: An assay for the bleaching of the solubilized indigo substrate by laccase/mediator combinations was performed in a 96-well microtitre plate as follows
(§1) A saturated solution of indigo in N-methylpyrrolidone (NMP) was prepared by stirring indigo (30 mg) in NMP (10 ml) at room temperature for 5 hours. The NMP solution was diluted 10-fold into an aqueous buffer solution resulting in a blue solution. For example, dilution into 50 mM sodium acetate buffer at pH 5, or 50 mM sodium phosphate buffer at pH 7. Solutions were shaken well immediately before use.
(§2) The assay for the bleaching of the solubilized indigo substrate was performed in a 96-well microtitre plate whereby each well received the soluble indigo solution in 50 mM sodium acetate buffer at pH 5 (180 uL), laccase (10 ppm enzyme) and mediator solution (from a 20 mM stock solution in methanol). The total volume of each well was adjusted to 200 uL with deionzed water. A control containing laccase only was run in duplicate. The plate was sealed and incubated at 50° C. for 2 hours at 800 rpm on a heated agitator (Thermomixer, Eppendorf). Following this period, the plates were unsealed and a solution of ascorbic acid (20 uL of a 10% aqueous solution) added to each well in order to reduce the oxidized forms of the mediators. The extent of indigo bleaching was then assessed by determining the absorbance for each well at 600 nm using a microtitre plate reader. The lower the absorbance reading, the greater the extent of indigo bleaching.

[3] = test system: Thielavia laccase (Ecostone LCC10); test: Soluble indigo bleaching at two pH values, Thielavia laccase (Example 3)
Protocol: as §1, §2
(§3) Laccases derived from Myceliophtora (Denilite® II, Novozymes, Bagsvaerd, Denmark), Thielavia (Ecostone LCC10, AB enzymes, Darmstadt, Germany) and Cerrena sp. were assessed for their ability to bleach solubilized indigo in conjunction with low molecular weight mediators at two pH values.
(§4) Bleaching of solubilized indigo in 96-well microtitre plates was performed as described in Example 1, using 3 different laccases at pH values of 5 and 7.

[4] = test system: Cerrena sp. laccase; test: Soluble indigo bleaching at two pH values, Cerrena sp. laccase (Example 3)
Protocol: as §1, §2, §3, §4

[5] = test system: Myceliophtora laccase (Denilite II); test: Soluble indigo bleaching at two pH values, Myceliophtora laccase (Example 3)
Protocol: as §1, §2, §3, §4

[6] = mediator 200 uM, laccase 20 ppm, pH 6, 50° C., 2 hours
[7] = mediator 500 uM, laccase 20 ppm, pH 6, 50° C., 2 hours
[8] = mediator 1000 uM, laccase 20 ppm, pH 6, 50° C., 2 hours
[9] = lower mediator concentration of 50 uM
[10] = mediator 50 mM Concentration (head)
[11] = mediator 500 mM Concentration (head)

SMILES	ΔA600 (change in absorbance at 600 nm relative to control) [2, 10]	ΔA600 (change in absorbance at 600 nm relative to control) [2, 11]	ΔA600 Thielavia ([3]; pH 5, mediator 250 uM)	ΔA600 Thielavia ([3]; pH 7, mediator 250 uM)	ΔA600 Cerrena ([4]; pH 5, mediator 250 uM)	ΔA600 Cerrena ([4]; pH 7, mediator 250 uM)	ΔA600 Myceliophtora ([5]; pH 5, mediator 250 uM)	ΔA600 Myceliophtora ([5]; pH 7, mediator 250 uM)	further results
COc1cc(O)cc(OC)c1OC [TMP, 3,4,5-trimethoxyphenol, reference compound]	–	–	–	–	–	–	–	–	effectiveness as mediator for denim swatch bleaching ([1]; C. unicolor laccase 20 ppm, 200-2000 uM mediator): not an effective mediator; ΔE (total color difference) Denim swatch Backside [1, 6]: 0.35 and 0.57; ΔE (total color difference) Denim swatch Frontside [1, 6]: 0.96 and 0.77; Δa Denim swatch Frontside [1, 6]: 0.29 and 0.33; ΔE (total color difference) Denim swatch Backside [1, 7]: 0.51 and 0.30; ΔE (total color difference) Denim swatch Frontside [1, 7]: 0.64 and 0.63; ΔL Denim swatch Frontside [1, 7]: −0.61; ΔE (total color difference) Denim swatch Backside [1, 8]: 0.45 and 0.51; ΔE (total color difference) Denim swatch Frontside [1, 8]: 0.51 and 0.46; Δa Denim swatch Backside [1, 8]: 0.22 and 0.12; ΔE (total color difference) Denim swatch Backside ([1]; mediator 2000 uM, laccase 20 ppm, pH 6, 50° C., 2 hours): 0.34
COc1cc(C(=O)O)cc(OC)c1O [Syringic acid, syringic acid]	0.005	0.024	–	–	–	–	–	–	effectiveness as mediator for indigo bleaching [2, 9]: no more effectively than the control condition
COc1cc(C=CC(=O)O)cc(OC)c1O (stereo in doubt) [Sinapinic acid, sinapinic acid]	–	–	0.068	0.112	0.240	0.257	0.157	0.204	–
CCn1c(=NN=c2sc3cc(S(=O)(=O)O)ccc3n2CC)sc2cc(S(=O)(=O)O)ccc21 [ABTS]	0.174	0.235	0.234	0.145	0.329	0.215	0.267	0.155	effectiveness as mediator for indigo bleaching [2, 9]: most effective mediator; effectiveness as mediator for indigo bleaching ([2]; mediator concentration of 500 uM): most effective mediator
COC(=O)c1cc(OC)c(OC(C)=O)c(OC)c1 [AMS, methyl 4-acetyl syringate]	–	–	0.100	0.087	0.028	0.077	0.117	0.078	–
COc1cc(C=O)cc(OC)c1O [Syringaldehyde, syringaldehyde]	0.092	0.132	–	–	–	–	–	–	–
CNC(=O)c1cc(OC)c(O)c(OC)c1 [MSA, 4-(N-methylcarboxamido)-2,6-dimethoxyphenol]	0.103	0.181	–	–	–	–	–	–	–
O=C(O)CCCN1c2ccccc2Sc2ccccc21 [PTP, 10-(carboxypropyl)-phenothiazine]	0.132	0.044	–	–	–	–	–	–	–
